Assay [1] deals with T1, human FAAH (Fatty Acid Amide Hydrolase) (Homo sapiens (Human), UniProt O00519). Briefly: FAAH inhibition, human FAAH CHO whole cell format. The format is cell-based. The text has this:
(§1) To assist in assay development stable cell lines for human, murine and rat full length FAAH were developed. […] The full length FAAH was subcloned into the mammalian expression vector, pcDEF.neo, using XbaI and EcoRI restriction sites and used for stable cell line generation.
(§2) The full length murine FAAH was subcloned into the mammalian expression vector, pcDEFneo using either EcoRI (murine) or KpnI and EcoRI (rat) restriction sites. Chinese hamster ovary cells (CHO) were transfected following manufacturers protocol (AMAXA). Forty eight hours post transfection, cells were trypsinized and transferred to 96 well plates in Iscove's DMEM media supplemented with 2 mM Glutamine, 10% fetal calf serum, 1 mg/ml geneticin and HT Supplement (0.1 mM sodium hypoxanthine, 0.016 mM thymidine) in order to isolate single clones. […] Following removal of tissue culture media cells were dislodged following addition of Cellstripper (Mediatech, Inc. Manassas, Va.) and transferred to 96 well black clear bottom assay plate, centrifuged at 1,000 rpm for 3 mins and media removed and replaced with assay buffer (50 mM Tris pH8.0, 1 mM EDTA, 0.1% fatty acid free BSA). The reaction was initiated by addition of fluorescent substrate, AMC Arachidonoyl Amide (Cayman Chemical, Ann Arbor, Mich.) to 1 μM and reaction allowed to proceed for 2 hours at room temperature. Release of fluorescence was monitored in a CytoFluor Multiplate Reader.
(§3) Assays are performed on either cell lysate or microsome fractions prepared as described or in whole cell format employing either the fluorescent substrate AAMCA (Cayman chemical, Ann Arbor, Mich.,) or ^3H-anandamide ([ETHANOLAMINE-1-3H] American Radiolabeled Chemicals; 1 mCi/ml). […] AAMCA substrate was used to achieve a final concentration of 1 μM and reaction allowed to proceed at room temperature for 1-3 hours. […] Whole cell assay is conducted with cells harvested after rinsing tissue culture flasks three times with Ca^++Mg^++ free PBS, incubating for 10 min in Enzyme free dissociation media and centrifuging for 5 minutes at 1,000 rpm in table top centrifuge. Cells are resuspended in assay buffer at desired cell number in (4×10^4 cells/assay in 96-well format; 1×10^4 cells/assay in 384-well format) and assayed as described.

Assay [2] addresses T1, human FAAH (Fatty Acid Amide Hydrolase). Briefly: FAAH inhibition, human FAAH CHO cell lysate (AAMCA fluorescence). The assay is classed as biochemical.
From the text: as §1, §2
CHO cells expressing FAAH were used to prepare either crude cell lysate or microsome fractions. To harvest cells, tissue culture media was decanted, the monolayer washed three times with Ca^++Mg^++ free PBS and cells recovered after 15 min in enzyme free dissociation media (Millipore Corp, Billerica, Mass.). Cells were collected by centrifuging at 2000 rpm for 15 min, and the cell pellet re-suspended with 50 mM HEPES (pH 7.4) containing 1 mM EDTA and the protease inhibitors aprotinin (1 mg/ml) and leupeptin (100 μM). The suspension was sonicated at 4° C. and the cell lysate recovered after centrifuging at 12,000×g (14,600 rpm, SS34 rotor) for 20 min at 4° C. to form a crude pellet of cell debris, nuclei, peroxisomes, lysosomes, and mitochondria; the supernatant or cell lysate was used for FAAH enzyme assay. In some eases, microsomes fractions enriched in FAAH were prepared by centrifuging the cell lysate further at 27,000 rpm (100,000×g) in SW28 rotor for 50 minutes at 4° C. The pellet containing FAAH-enriched microsomes was re-suspend in 50 mM HEPES, (pH 7.4) 1 mM EDTA, and any remaining DNA sheared by passage of material through a 23 gauge needle and aliquots of enzyme were store at −80° C. prior to use.
as §3
Alternatively, assays are performed using anandamide [ethanolamine 1-^3H] (specific activity of 10 Ci/mmol) diluted with cold anandamide to achieve a final assay concentration of 1 μM anandamide (˜50,000 cpm). Enzyme (CHO cell lysate, brain or liver homogenate) is incubated in assay buffer (50 mM Phosphate, pH 8.0, 1 mM EDTA, 200 mM KCl, 0.2% glycerol, 0.1% fatty acid free BSA) with inhibitor at 25° C. for 30 minutes.

Among the data in US9193697B2, “Oxazole derivatives useful as modulators of FAAH” (MERCK SHARP & DOHME CORP., priority 2010, dated 2015) are IC50 values, retold here.

T1 sequence (O00519 whole entry): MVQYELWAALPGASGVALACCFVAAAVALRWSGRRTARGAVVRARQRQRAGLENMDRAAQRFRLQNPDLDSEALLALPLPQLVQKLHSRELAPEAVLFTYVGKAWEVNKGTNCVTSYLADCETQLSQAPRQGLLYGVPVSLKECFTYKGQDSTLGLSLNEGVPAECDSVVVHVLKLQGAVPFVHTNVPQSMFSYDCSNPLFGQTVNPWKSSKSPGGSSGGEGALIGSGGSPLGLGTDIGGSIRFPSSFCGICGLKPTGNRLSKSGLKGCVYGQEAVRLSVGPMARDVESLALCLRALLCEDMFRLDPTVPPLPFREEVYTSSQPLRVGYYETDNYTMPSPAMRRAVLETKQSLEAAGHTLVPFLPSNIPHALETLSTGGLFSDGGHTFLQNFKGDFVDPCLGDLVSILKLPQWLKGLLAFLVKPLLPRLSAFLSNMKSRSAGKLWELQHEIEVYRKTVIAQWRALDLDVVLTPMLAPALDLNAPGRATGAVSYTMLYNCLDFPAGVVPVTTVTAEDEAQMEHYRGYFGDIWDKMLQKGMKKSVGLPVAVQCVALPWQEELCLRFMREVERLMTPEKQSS

What is called IC50 is the concentration needed to halve the response being measured. High values mean weaker potency in that assay, low ones greater potency in that assay. For the compound `Clc1ccc(Sc2oc(C3CCOCC3)nc2-c2ccc3[nH]ncc3c2)cc1` [Example B5.2, 5-{5-[(4-chlorophenyl)sulfanyl]-2-(tetrahydro-2H-pyran-4-yl)-1,3-oxazol-4-yl}-1H-indazole], the IC50 was found to be 10.9 nM in assay [1] and 4.19 nM in assay [2]. The corresponding values for `COC(=O)N1CCC(c2nc(-c3ccc([S+](C)[O-])cc3)c(Sc3ccc(Cl)cn3)o2)CC1` (centres unmarked) [Example A7.17, methyl 4-{5-[(5-chloropyridin-2-yl)sulfanyl]-4-[4-(methylsulfinyl)phenyl]-1,3-oxazol-2-yl}piperidine-1-carboxylate] are 547 nM and 75.1 nM. The matching figures for `COCCOCCOCC(=O)N1CCC(c2nc(-c3ccc([S+](C)[O-])cc3)c(Sc3ccc(Cl)cn3)o2)CC1` (centres unmarked) [Example A7.26]: 6550 nM and 748 nM.

As for `CC(=O)N1CCC(c2nc(-c3ccc([S+](C)[O-])cc3)c(Sc3ccc(Cl)cn3)o2)CC1` (centres unmarked) [Example A7.18, 1-(4-{5-[(5-Chloropyridin-2-yl)sulfanyl]-4-[4-(methylsulfinyl)phenyl]-1,3-oxazol-2-yl}piperidin-1-yl)ethanone], the IC50 in assay [1] is 4420 nM; in assay [2], 839 nM. Consider `COCCOC(=O)N1CCC(c2nc(-c3ccc([S+](C)[O-])cc3)c(Sc3ccc(Cl)cn3)o2)CC1` (centres unmarked) [Example A7.24, 2-methoxyethyl 4-{5-[(5-chloropyridin-2-yl)sulfanyl]-4-[4-(methylsulfinyl)phenyl]-1,3-oxazol-2-yl}piperidine-1-carboxylate], for which the IC50 turned out to be 1330 nM in assay [1] and 200 nM in assay [2].

In the case of `C[S+]([O-])c1ccc(-c2nc(C3CCOCC3)oc2Sc2ccc(Cl)cn2)cn1` (centres unmarked) [Example A7.2, 5-chloro-2-({4-[6-(methylsulfinyl)pyridin-3-yl]-2-(tetrahydro-2H-pyran-4-yl)-1,3-oxazol-5-yl}sulfanyl)pyridine], the IC50 was 935 nM in assay [1] and 293 nM in assay [2]. For `C[S+]([O-])c1ccc(-c2nc(C3=CCCCC3)oc2Sc2ccc(Cl)cc2)cc1` (centres unmarked) [Example C6.1, 5-[(4-chlorophenyl)sulfanyl]-2-(cyclohex-1-en-1-yl)-4-[4-(methylsulfinyl)phenyl]-1,3-oxazole], the IC50 in assay [1] worked out at 105 nM; in assay [2], 11.9 nM. The corresponding values for `Clc1ccc(Sc2oc(C3CCOCC3)nc2-c2ccc(N3CCNCC3)nc2)cc1` [Example B5.9, 1-(5-{5-[(4-chlorophenyl)sulfanyl]-2-(tetrahydro-2H-pyran-4-yl)-1,3-oxazol-4-yl}pyridin-2-yl)piperazine] are 115 nM and 9.61 nM.

Turning to `Clc1ccc(Sc2oc(C3CCOCC3)nc2-c2cnn(CC3OCCO3)c2)cc1` [Example B5.5, 5-[(4-chlorophenyl)sulfanyl]-4-[1-(1,3-dioxolan-2-ylmethyl)-1H-pyrazol-4-yl]-2-(tetrahydro-2H-pyran-4-yl)-1,3-oxazole], the IC50 in assay [1] is 1050 nM; in assay [2], 255 nM. Compound `COC(=O)[C@H]1CC[C@H](c2nc(-c3ccc(C(C)(C)O)nc3)c(Sc3ccc(Cl)cc3)o2)CC1` [Example B5.33, methyl trans-4-{5-[(4-chlorophenyl)sulfanyl]-4-[6-(2-hydroxypropan-2-yl)pyridin-3-yl]-1,3-oxazol-2-yl}cyclohexanecarboxylate] displayed an IC50 in assay [1] of 9.5 nM. Still for that read-out and setting: the result for `O=C(c1ccc(-c2nc(C3CCOCC3)oc2Sc2ccc(Cl)cc2)cc1)N1CC2CC1CO2` (centres unmarked) [Example B5.18, (4-{5-[(4-chlorophenyl)sulfanyl]-2-(tetrahydro-2H-pyran-4-yl)-1,3-oxazol-4-yl}phenyl)(2-oxa-5-azabicyclo[2.2.1]hept-5-yl)methanone] reads 375 nM. As for `CC(C)(O)c1ccc(-c2nc(C3CCOCC3)oc2Sc2cccc(Cl)c2)cn1` [Example A7.9, 2-(5-{5-[(3-chlorophenyl)sulfanyl]-2-(tetrahydro-2H-pyran-4-yl)-1,3-oxazol-4-yl}pyridin-2-yl)propan-2-ol], the IC50 in assay [1] was ≥ 10000 nM. The same measure, in the same setting: the result for `COC(=O)N1CCC(c2nc(C3CCOCC3)oc2Sc2ccc(Cl)cn2)CC1` [Example A7.32, methyl 4-{5-[(5-chloropyridin-2-yl)sulfanyl]-2-(tetrahydro-2H-pyran-4-yl)-1,3-oxazol-4-yl}piperidine-1-carboxylate] reads 142 nM; that for `COc1ccc(Sc2oc(C3CCOCC3)nc2-c2ccc(C(C)(C)O)nc2)cn1` [Example A7.8, 2-(5-{5-{(6-methoxypyridin-3-yl)sulfanyl]-2-(tetrahydro-2H-pyran-4-yl)-1,3-oxazol-4-yl}pyridin-2-yl)propan-2-ol], 1190 nM.

Consider `CC(C)(O)c1ccc(-c2nc(C3CCOCC3)oc2Sc2ncc(Cl)cn2)cn1` [Example A7.3, 2-(5-{5-[(5-chloropyrimidin-2-yl)sulfanyl]-2-(tetrahydro-2H-pyran-4-yl)-1,3-oxazol-4-yl}pyridin-2-yl)propan-2-ol], for which, in assay [1], half-maximal inhibition (IC50) required 852 nM. Same read-out and setting: next, `O=C(c1ccc(-c2nc(C3CCOCC3)oc2Sc2ccc(Cl)cc2)cc1)N1CCC(O)CC1` [Example B5.19, (4-{5-[(4-chlorophenyl)sulfanyl]-2-(tetrahydro-2H-pyran-4-yl)-1,3-oxazol-4-yl}phenyl)(4-hydroxypiperidin-1-yl)methanone]: 2670 nM; `COc1ccc(OC(=O)N2CCC(c3nc(C4CCOCC4)oc3Sc3ccc(Cl)cn3)CC2)cc1` [Example A7.39, 4-methoxyphenyl 4-{5-[(5-chloropyridin-2-yl)sulfanyl]-2-(tetrahydro-2H-pyran-4-yl)-1,3-oxazol-4-yl}piperidine-1-carboxylate]: 2810 nM; `CCOC(=O)N1CCC(c2nc(C3CCOCC3)oc2Sc2ccc(Cl)cn2)CC1` [Example A7.34, ethyl 4-{5-[(5-chloropyridin-2-yl)sulfanyl}-2-(tetrahydro-2H-pyran-4-yl)-1,3-oxazol-4-yl}piperidine-1-carboxylate]: 150 nM. Same read-out and setting: next, `CC(C)(O)c1ccc(-c2nc(C3CCOCC3)oc2Sc2ccc(F)cn2)cn1` [Example A7.5, 2-(5-{5-[(5-fluoropyridin-2-yl)sulfanyl]-2-(tetrahydro-2H-pyran-4-yl)-1,3-oxazol-4-yl}pyridin-2-yl)propan-2-ol]: 4250 nM; `CCNC(=O)N1CCC(c2nc(C3CCOCC3)oc2Sc2ccc(Cl)cn2)CC1` [Example A7.40, 4-{5-[(5-chloropyridin-2-yl)sulfanyl]-2-(tetrahydro-2H-pyran-4-yl)-1,3-oxazol-4-yl}-N-ethylpiperidine-1-carboxamide]: 9700 nM. Same read-out and setting: the result for `CC(C)(O)c1ccc(-c2nc(C3CCOCC3)oc2Sc2ccc(C3CC3)cn2)cn1` [Example A7.6, 2-(5-{5-{(5-cyclopropylpyridin-2-yl)sulfanyl]-2-(tetrahydro-2H-pyran-4-yl)-1,3-oxazol-4-yl}pyridin-2-yl)propan-2-ol] reads 4140 nM; that for `CC(C)(O)c1ccc(-c2nc(C3CCOCC3)oc2Sc2ccc(OC(F)F)cn2)cn1` [Example A7.7, 2-{5-[5-{[5-(difluoromethoxy)pyridin-2-yl]sulfanyl}-2-(tetrahydro-2H-pyran-4-yl)-1,3-oxazol-4-yl]pyridin-2-yl}propan-2-ol], 2210 nM. Turning to `CC(c1ccc(-c2nc(C3CCOCC3)oc2Sc2ccc(Cl)cc2)cc1)N1CCOCC1` (centres unmarked) [Example B5.17, 4-[1-(4-{5-[(4-chlorophenyl)sulfanyl]-2-(tetrahydro-2H-pyran-4-yl)-1,3-oxazol-4-yl}phenyl)ethyl]morpholine], the IC50 in assay [1] is 1530 nM.
